The source of these data is patent publication US10954461B2, “Methods for preventing microbial growth and microbiologically influenced corrosion in a biodegradable and/or renewable fuel, hydraulic fluid and/or lubricant” (TRIBORON INTERNATIONAL AB, priority 2016, dated 2021).

The subject of one series is microbial growth. The conditions noted are these: lowest tested concentration (1:2000, 44 ppm boric acid, 7.5 ppm boron); HVO and RME with lake water; initial results.
The conditions of series [1]: based on available in vitro data; SCCS opinion 2010; cited from earlier work.

SMILES strings stand for the structures.

Protocol for microbial growth: 20 samples were prepared, 10×50 g of each fuel type, HVO and RME respectively. For each fuel type, there were four boron concentrations and a reference. One of each concentration and fuel was placed in a heating chamber at 45° C. and in front of a window subjected to sunlight. Water was taken from a lake nearby and stored in the heat chamber for an amount of time to enhance microorganism content and activity. 15 g of lake water was added to each sample, and the contaminated samples stored one week in 45° C. and exposed to sunlight. A stable solution of inorganic boron in ethanol was added to each sample in different dilutions, corresponding to the theoretical concentrations in the samples shown in table 3: [table]

`OB(O)O` [boric acid]: the “effect on microbial growth in contaminated samples” value in the series with microbial growth is listed as “marked effect”. Moreover, the mutagenicity result in series [1] is listed as “non-mutagenic”.
